This is an account of results in patent US7759369B2, “Pyridine compounds for the treatment of prostaglandin mediated diseases” (Glaxo Group Limited, priority 2004, dated 2010).

The target of one test is T1, EP3 receptors (Homo sapiens, UniProt P43115).
T1 construct: expressed in transfected cells; host or cells: CHO-K1
T1 sequence (P43115 1-390): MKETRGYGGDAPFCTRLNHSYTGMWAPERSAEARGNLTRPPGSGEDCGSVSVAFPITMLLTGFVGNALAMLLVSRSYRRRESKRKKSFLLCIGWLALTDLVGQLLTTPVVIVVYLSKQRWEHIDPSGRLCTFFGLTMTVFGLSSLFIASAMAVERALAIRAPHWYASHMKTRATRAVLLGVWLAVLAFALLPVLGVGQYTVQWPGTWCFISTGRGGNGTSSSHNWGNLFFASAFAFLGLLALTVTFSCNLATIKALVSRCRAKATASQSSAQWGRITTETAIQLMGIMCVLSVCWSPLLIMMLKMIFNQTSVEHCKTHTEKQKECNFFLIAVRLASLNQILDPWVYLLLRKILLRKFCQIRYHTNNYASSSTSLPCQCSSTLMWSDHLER
Description: human EP3 calcium mobilisation assay (CHO-K1 cells, PGE2, FLIPR). Format: cell-based. The following applies: free bases or sodium salts; averages of a number of experiments; read-out: functional pKi value, human EP3 calcium mobilisation assay (converted). How it is done:
(§1) Briefly, the antagonist properties of compounds are assessed by their ability to inhibit the mobilisation of intracellular calcium ([Ca^2+]i) in response to activation of EP1 or EP3 receptors by the natural agonist hormone prostaglandin E2 (PGE2). Increasing concentrations of antagonist reduce the amount of calcium that a given concentration of PGE2 can mobilise. The net effect is to displace the PGE2 concentration-effect curve to higher concentrations of PGE2. The amount of calcium produced is assessed using a calcium-sensitive fluorescent dye such as Fluo-4, AM and a suitable instrument such as a Fluorimetric Imaging Plate Reader (FLIPR). Increasing amounts of [Ca^2+]i produced by receptor activation increase the amount of fluorescence produced by the dye and give rise to an increasing signal. The signal may be detected using the FLIPR instrument and the data generated may be analysed with suitable curve-fitting software.
(§2) The human EP1 or EP3 calcium mobilisation assay (hereafter referred to as ‘the calcium assay’) utilises Chinese hamster ovary-K1 (CHO-K1) cells into which a stable (pCIN; BioTechniques 20 (1996): 102-110) vector containing either EP1 or EP3 cDNA has previously been transfected. Cells are cultured in suitable flasks containing culture medium such as DMEM:F-12 supplemented with 10% v/v foetal calf serum, 2 mM L-glutamine, 0.25 mg/ml geneticin, 100 μM flurbiprofen and 10 µg/ml puromycin.
(§3) For assay, cells are harvested using a proprietary reagent that dislodges cells such as Versene. Cells are re-suspended in a suitable quantity of fresh culture media for introduction into a 384-well plate. Following incubation for 24 hours at 37° C. the culture media is replaced with a medium containing Fluo-4 and the detergent pluronic acid, and a further incubation takes place. Concentrations of compounds are then added to the plate in order to construct concentration-effect curves. This may be performed on the FLIPR in order to assess the agonist properties of the compounds. Concentrations of PGE2 are then added to the plate in order to assess the antagonist properties of the compounds.
(§4) The data so generated may be analysed by means of a computerised curve-fitting routine. The concentration of compound that elicits a half-maximal inhibition of the calcium mobilisation induced by PGE2 (pIC50) may then be estimated.
A general note: A change in cytosolic calcium serves as a functional read-out for many receptors and channels.

A further test concerns the target T2, TP receptor (Homo sapiens, UniProt P21731).
T2 construct: expressed in transfected cells; host or cells: CHO-K1
T2 sequence (P21731 1-343): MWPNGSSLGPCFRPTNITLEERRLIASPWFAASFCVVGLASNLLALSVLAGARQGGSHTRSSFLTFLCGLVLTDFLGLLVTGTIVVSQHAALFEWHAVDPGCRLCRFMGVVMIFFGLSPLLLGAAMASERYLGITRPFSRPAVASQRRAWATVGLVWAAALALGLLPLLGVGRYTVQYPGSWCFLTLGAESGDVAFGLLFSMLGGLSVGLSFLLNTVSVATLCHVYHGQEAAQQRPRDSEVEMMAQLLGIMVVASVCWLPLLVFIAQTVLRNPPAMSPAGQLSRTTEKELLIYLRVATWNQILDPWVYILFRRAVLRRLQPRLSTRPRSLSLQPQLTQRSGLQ
Description: human TP calcium mobilisation assay (CHO-K1 cells, U46619, FLIPR). Format: cell-based. The following applies: free bases or sodium salts; read-out: functional pKi, human TP calcium mobilisation assay (converted). How it is done: as §1, with “To determine if a compound has agonist or antagonist activity at the TP receptor a functional calcium mobilisation assay may be performed. Briefly,” for “Briefly,”, “TP” for “EP1 or EP3”, “stable TXA2 mimetic U46619 (9,11-dideoxy-11α,9α-epoxy-methanoprostaglandin F2 α; commercially available from e.g Sigma-Aldrich).” for “natural agonist hormone prostaglandin E2 (PGE2).”, “U46619” for “PGE2”, “curve.” for “curve to higher concentrations of PGE2.”, “software. The agonist activity of the compounds are determined by their ability to cause an increase in intracellular mobilisation in the absence of U46619.” for “software.”
The human TP calcium mobilisation assay utilises Chinese hamster ovary-K1 (CHO-K1) cells into which a stable (pCIN; BioTechniques 20 (1996): 102-110) vector containing TP cDNA has previously been transfected. Cells are cultured in suitable flasks containing culture medium such as DMEM:F-12 supplemented with 10% v/v foetal calf serum, 2 mM L-glutamine, 0.25 mg/ml geneticin, 100 μM flurbiprofen and 10 μg/ml puromycin.
as §3, with “96-well” for “384-well”, “U46619” for “PGE2”
The data so generated may be analysed by means of a computerised curve-fitting routine. The concentration of compound that elicits a half-maximal inhibition of the calcium mobilisation induced by U46619 (plC50) may then be estimated, and the percentage activation caused by the compounds directly can be used to determine if there is any agonism present.

The target of test [1] is T3, EP1 receptors (Homo sapiens, UniProt P34995).
T3 sequence (P34995 1-402): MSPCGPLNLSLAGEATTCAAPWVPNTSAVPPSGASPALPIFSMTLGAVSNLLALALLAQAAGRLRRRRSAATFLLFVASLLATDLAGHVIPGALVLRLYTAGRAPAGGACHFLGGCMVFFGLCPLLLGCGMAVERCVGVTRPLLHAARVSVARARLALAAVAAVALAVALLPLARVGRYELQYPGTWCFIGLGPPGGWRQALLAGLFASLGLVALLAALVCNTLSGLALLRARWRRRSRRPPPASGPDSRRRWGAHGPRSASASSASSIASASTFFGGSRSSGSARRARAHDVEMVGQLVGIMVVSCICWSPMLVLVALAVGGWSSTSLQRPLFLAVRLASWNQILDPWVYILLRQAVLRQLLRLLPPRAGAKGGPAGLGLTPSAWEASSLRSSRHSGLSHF
Description: human EP1 calcium mobilisation assay (CHO-K1 cells, PGE2, FLIPR). Format: cell-based. Particulars: free bases or sodium salts; averages of a number of experiments; read-out: functional pKi value, human EP1 calcium mobilisation assay (converted). Further details: expressed in transfected cells; host or cells: CHO-K1. How it is done: as §1, §2, §3, §4

For test [2], the target named is T3, EP1 receptors. Description: Binding assay for the human prostanoid EP1 receptor (competition with [3H]-PGE2). On the set-up: expressed in transfected cells; host or cells: CHO-K1 (membrane fraction). The following applies: averages of a number of experiments; Example 3 as sodium salt; read-out: pIC50 value in the binding assay for the human prostanoid EP1 receptor (converted). How it is done: Binding Assay for the Human Prostanoid EP1 Receptor
Competition assay using [^3H]-PGE2.
Compound potencies are determined using a radioligand binding assay. In this assay compound potencies are determined from their ability to compete with tritiated prostaglandin E2 ([^3H]-PGE2) for binding to the human EP1 receptor.
This assay utilises Chinese hamster ovary-K1 (CHO-K1) cells into which a stable vector containing the EP1 cDNA has previously been transfected. Cells are cultured in suitable flasks containing culture medium such as DMEM:F-12 supplemented with 10% v/v foetal calf serum, 2 mM L-glutamine, 0.25 mg/ml geneticin, 10 μg/ml puromycin and 10 μM indomethacin.
Cells are detached from the culture flasks by incubation in calcium and magnesium free phosphate buffered saline containing 1 mM disodium ethylenediaminetetraacetic acid (Na2EDTA) and 10 μM indomethacin for 5 min. The cells are isolated by centrifugation at 250×g for 5 mins and suspended in an ice cold buffer such as 50 mM Tris, 1 mM Na2EDTA, 140 mM NaCl, 10 μM indomethacin (pH 7.4). The cells are homogenised using a Polytron tissue disrupter (2×10s burst at full setting), centrifuged at 48,000×g for 20 mins and the pellet containing the membrane fraction is washed (optional) three times by suspension and centrifugation at 48,000×g for 20 mins. The final membrane pellet is suspended in an assay buffer such as 10 mM 2-[N-morpholino]ethanesulphonic acid, 1 mM Na2EDTA, 10 mM MgCl2 (pH 6). Aliquots are frozen at −80° C. until required.
For the binding assay the cell membranes, competing compounds and [^3H]-PGE2 (3 nM final assay concentration) are incubated in a final volume of 100 μl for 30 min at 30° C. All reagents are prepared in assay buffer. Reactions are terminated by rapid vacuum filtration over GF/B filters using a Brandell cell harvester. The filters are washed with ice cold assay buffer, dried and the radioactivity retained on the filters is measured by liquid scintillation counting in Packard TopCount scintillation counter.
The data are analysed using non linear curve fitting techniques to determine the concentration of compound producing 50% inhibition of specific binding (IC50).

Consider `O=C(O)c1cccc(Cc2cc(Cl)ccc2OCc2ccc(Cl)cc2)n1` [Example 9, Sodium 6-[(5-chloro-2-{[(4-chlororophenyl)methyl]oxy}phenyl)methyl]-2-pyridinecarboxylate], for which the Ki on EP3 receptors is above 10 µM; on TP receptor, below 1000 nM; at EP1 receptors [1] it was below 1000 nM.

As for `CC(C)COc1ccc(Cl)cc1Cc1cccc(C(=O)O)n1` [Example 15, Sodium 6-({5-chloro-2-[(2-methylpropyl)oxy]phenyl}methyl)-2-pyridinecarboxylate], the Ki was above 10 µM at EP3 receptors, above 1000 nM on TP receptor and below 1000 nM on EP1 receptors [1].

For the compound `O=C(O)c1cncc(Cc2cc(Cl)ccc2OCc2c(F)cccc2F)c1` [Example 27, Sodium 5-[(5-chloro-2-{[(2,6-difluorophenyl)methyl]oxy}phenyl)methyl]-3-pyridinecarboxylate], the IC50 at EP1 receptors [2] is above 1000 nM.

On to `CC(C)(C)Oc1ccc(Cl)cc1Cc1cccc(C(=O)O)n1` [Example 41, 6-({5-Chloro-2-[(1,1-dimethylethyl)oxy]phenyl}methyl)-2-pyridinecarboxylic acid], for which the Ki at EP1 receptors [1] was above 1000 nM. The IC50 at EP1 receptors [2] is above 1000 nM.
